Literature values as cited in patent US20210121528A1, “COMPOSITIONS FOR TREATING LUNG INFECTIONS BY AIRWAY ADMINISTRATION” (priority 2014, published 2021).
Where two headings read alike, the source gives them in different places.

How the values were obtained:
[1] = not given; remark: listed apart in the source
[2] = not given; remark: listed apart in the source
[3] = tested on: mammalian cells and organs
[4] = human, in vivo
[5] = tested on: polymorphonuclear leukocytes
Prevotella = settings: anaerobic genus
[6] = tested on: strains of organisms from the susceptible genera
[7] = tested on: Veillonella and Fusobacterium; settings: anaerobic genera
[8] = tested on: Staphylococcus, Streptococcus, Neisseria, Escherichia, Proteus (indole-negative), Serratia, Salmonella, Shigella, Pseudomonas, Haemophilus, Vibrio, and …; settings: aerobic genera
[9] = tested on: methicillin-resistant Staphylococcus aureus and extended spectrum 13-lactamase (ESBL) enterobacteria; settings: resistant bacteria
[10] = tested on: Moraxella catarrhalis, Burkholderia cepacia, Mycobacterium spp. and Stenotrophomonas maltophilia
macrophages = settings: in vitro incubation
[11] = tested on: lethal pneumococcal pneumonia; settings: local delivery, mice
[12] = in vivo, po

For `C[C@@H]1O[C@@H]1P(=O)(O)O` [Fosfomycin calcium monohydrate], the “irritation of the stomach / oral tolerability” value (in vivo, po) is listed as “less irritating to the stomach”, the solubility in water [1] is listed as “sparingly soluble” and the “pH of 0.4% solution” value ([2]; 0.4% solution) is listed as 8.1-9.6.

For `C[C@@H]1O[C@@H]1P(=O)(O)O` [fosfomycin, [(2R,3S)-3-methyloxiran-2-yl]phosphonic acid], the “toxicity to mammalian cells and organs” value [3] is listed as “remarkably non-toxic”, the eosinophilia [4] is listed as 0.2% and the transient rashes [4] is listed as 0.3 % of cases. For the same compound, the “transiently raised liver enzymes” value [4] was 0.3 % of cases, the “concentration in polymorphonuclear leukocytes relative to the extracellular fluid” value [5] was “twice” and the bactericidal activity (Prevotella) was “moderately active”. For the same compound, the “synergistic effect, share of tested strains” value ([6]; early studies, various antibiotic combinations) was 70-100%, the synergy rates ([6]; subsequent more extensive studies) was 36-74% and the bactericidal activity [7] was “active”. The bactericidal activity [8] was “active”, the bactericidal activity [9] was “active” and the bactericidal activity [10] was “less active”.

In the case of “GM-CSF: Monomeric protein of 127 amino-acid residues, colony-stimulating factor; SEQ ID NO: 2 mature human form”, the “time for transformation of a resting macrophage into a fully immunocompetent dendritic cell” value (macrophages) is listed as “approximately 10 days” and the “protection from lethal pneumococcal pneumonia” value [11] is listed as “protects”.

For `C[C@@H]1O[C@@H]1P(=O)(O)O.NC(CO)(CO)CO` [Fosfomycin trometamol], the bioavailability [12] is listed as “about 40%”, the “irritation of the stomach / oral tolerability” value (oral) is listed as “well tolerated” and the solubility in water [1] is listed as “highly soluble”. The “pH of 5% solution” value [2] was 3.5-5.5.

In the case of `C[C@@H]1O[C@@H]1P(=O)(O)O` [Fosfomycin disodium], the “irritation of the stomach / oral tolerability” value (in vivo, po) is given as “irritant to the stomach”, the solubility in water [1] is given as “highly soluble” and the “pH of 5% solution” value [2] is given as 9.0-10.5.
